Test results taken from patent US11759444B2, “Methods for cancer and immunotherapy using prodrugs of glutamine analogs” (The Johns Hopkins University, priority 2015, dated 2023).
“Also recorded” adds a separate entry of the source. Where two headings read alike, the source gives them in different places. Blank lines part the entries; values can stand above or below the compound they belong to.

How the values were obtained:
[1] = In vitro plasma stability, pig plasma; type: in vitro ADME
[2] = In vitro plasma stability, dog plasma; type: in vitro ADME
[3] = Plasma and CSF pharmacokinetics in monkeys, i.v.; type: in vivo, pigtail macaques; settings: monkey
Procedure: All monkey studies were conducted according to protocol (#PR15M298) approved by the Animal Care and Use Committee at Johns Hopkins University. Two female pigtail monkeys (approximately 3.5 kg, non-drug naive) were adjacently housed in stainless steel cages on a social interaction rack (contains 4 cages, each 32.5″ wide×28″ deep×32″ high) maintaining temperature of 64-84° F., humidity of 30-70% with alternating 14-10 hour light/dark cycle as per the USDA Animal Welfare Act (9 CFR, Parts 1, 2, and 3). Food was provided daily in amounts appropriate for the size and age of the animals and RO purified water provided ad libitum through an in-cage lixit valve. Food enrichment was provided Monday through Friday. […]
We have previously published a highly sensitive method for analysis of DON in biological matrices (Alt, et al., 2015). […] The mean predicted […] for back calculated concentrations of the standards and QC's for all analytes were within the range of 85 to 115%, except for the lowest concentration which was within the range of 80 to 120% with an overall accuracy and precision of 6.7% and 6.6% respectively.
Mean concentration-time data was used for pharmacokinetic analysis. […] Area under the curve (AUC) was calculated by log-linear trapezoidal rule to the end of sample collection (AUClast). […]

[4] = Plasma and CSF pharmacokinetics in swine, i.v. infusion; type: in vivo, Göttingen×Yucutan miniature swine; settings: 60 min post-administration
[5] = In vitro plasma stability, mouse plasma
[6] = In vitro plasma stability, human plasma
[7] = In vitro plasma stability, monkey plasma
EL4 lymphoma = assay: EL4 mouse lymphoma model; type: in vivo; settings: monotherapy
B16 melanoma = B16 melanoma mouse model; type: in vivo; settings: monotherapy
CT26 cells = assay: CT26 colon cancer tumor model; type: in vivo, BALB/c mice; settings: for CT26 anti-tumor response in combination with anti-PD1: combination with anti-PD-1
Procedure: (§1) Tumor growth and survival experiments: Tumor injections were administered in the right flank. For the MC38 and MC38OVA models, C57BL/6 WT mice were injected with 5×10^5 MC38 or MC38OVA cells (s.c.) cultured in DMEM-based media. For the CT26 model, BALB/c mice were injected with 5×10^5 CT26 cells (s.c.) cultured in RPMI-based media. Compound 25 was dissolved in 2.5% ethanol in PBS (v/v) which was administered for all vehicle-treated control experiments. For MC38 and MC38OVA experiments, mice were treated with Compound 25 or vehicle by daily gavage with 1 mg/kg/day in 100 uL for days 10-14 and with 0.3 mg/kg/day for day 15-24. For CT26 experiments, mice were treated with compound 25 or vehicle by daily gavage with 1 mg/kg/day in 100 uL for days 7-11 and with 0.3 mg/kg/day for day 12-21.

MC38 cells [8] = assay: MC38 colon cancer tumor model; type: in vivo, C57BL/6 mice; settings: for MC38 tumor response, monotherapy (words): 1 mg/kg followed by 0.3 mg/kg, 14 days, wild type mice; for rejection of tumor re-challenge by mice cured with monotherapy: MC38 rechallenge on opposite flank; for MC38 response in combination with anti-PD1: combination with anti-PD-1
Procedure: as §1

EO771 cells = assay: EO771 breast cancer model; type: in vivo, C57BL/6 mice
Procedure: Mouse: C57BL/6 (both male and female mice, 6-8 weeks of age) were purchased from Jackson Laboratories. The studies were conducted under a protocol approved by the Johns Hopkins Animal Care and Use Committee.
Cell Line: EO771 breast cancer cell lines were purchased from CH3 BioSystems.
Treatment with immunotherapy alone or combined immunotherapy with compound 25: On days 9, 12, and 15, mice were injected with or without 100 μg anti-PD1 alone or 100 μg anti-PD1 in combination with 100 μg anti-CTLA4, followed by treatment with or without compound 25. Each individual mouse tumor growth and survival curves were recorded.

3LL cells = assay: 3LL tumor model; type: in vivo, C57BL/6J mice
Text: 5×10^6 3 LL cells were implanted subcutaneously into the right flank in C57BL/6J male mice.

B16-OVA melanoma cells = assay: B16-OVA melanoma model with adoptive cellular therapy; type: in vivo, C57BL/6 mice; settings: 1 mg/kg/day days 7-9 before transfer on day 10
Procedure: Adoptive Cellular Therapy: OVA-expressing B16 melanoma model, C57BL/6 WT mice received a s.c. injection of 2×10^5 B16-OVA melanoma cells cultured under OVA selection media containing 400 μg/ml G418 (Life technologies). Mice were treated with compound 25 or vehicle by daily gavage with 1 mg/kg/day in 100 uL for days 7-9 post tumor inoculation. Ten days after tumor injection, mice received an adoptive transfer of 1.5×10^6 activated OT1 cells, which had been stimulated in vitro with […] peptide for 48 h, expanded in IL-2 (1 ng/mL) for 24 h and isolated with Ficol gradient centrifugation. Mice were randomized based on tumor size before transfer of activated OT1 cells for adoptive transfer experiments. Tumor burden was assessed every 2-4 days by measuring length and width of tumor. Tumor volume was calculated using the formula V=(L×W×W)/2, where V is tumor volume, W is tumor width, and L is tumor length. Mice were sacrificed when tumor reached 2 cm in any dimension, became ulcerate or necrotic, or caused functional deficits.

[9] = microsomes
[10] = microsomes; remark: listed apart in the source
MC38 cells [11] = assay: MC38 colon cancer tumor model; type: in vivo, C57BL/6 mice; settings: growth rate recovered after several days
4T1 tumor cells = assay: 4T1 breast cancer model; settings: for 4T1 tumor growth and survival, monotherapy (words): 1 mg/kg daily
[12] = Table 2, prodrug 10 μM, 60 min incubation at 37° C., values read as % prodrug remaining
[13] = 1 mg/kg daily day 7 to 16, tumors evaluated day 21

stability in pig plasma [1]: stable | stability in dog plasma [2]: stable | CSF:plasma ratio of DON [3]: enhanced CSF:plasma ratio of DON | metabolism in mouse plasma [5]: rapidly metabolized | PLASMA STABILITY Mouse [5, 12]: 0% | metabolism in mouse plasma ([5]; listed as 5c): completely converted to DON | stability in human plasma [6]: stable | PLASMA STABILITY Human [6, 12]: 91% | stability in monkey plasma [7]: stable | PLASMA STABILITY Monkey [7, 12]: 61%
Structure (SMILES): CC(C)OC(=O)[C@H](CCC(=O)C=[N+]=[N-])NC(=O)O[C@H](C)OC(=O)C(C)(C)C (single isomer, unassigned) [Compound 14b]
CSF delivery of DON [4]: substantially higher amounts of DON; also recorded: enhanced CSF delivery of DON | CSF-to-plasma ratio of DON [4]: increased CSF-to-plasma ratios; also recorded: enhanced CSF:plasma ratio of DON | stability in human plasma ([6]; listed as 5c): stable; also recorded: excellent stability | stability in monkey plasma ([7]; listed as 5c): stable; also recorded: excellent stability

Structure (SMILES): CCOC(=O)[C@H](CCC(=O)C=[N+]=[N-])NC(=O)[C@@H](N)CC(C)C [Compound 25]
lymphoma tumor growth (EL4 lymphoma): marked decrease in tumor growth | melanoma tumor growth (B16 melanoma): marked decrease in tumor growth | CT26 tumor model, comparison with CB-839 (CT26 cells; 25 short daily course vs CB-839 continuous BID dosing): superior to CB-839 | CT26 anti-tumor response in combination with anti-PD1 (CT26 cells): unexpectedly enhances the response to anti-PD1 | CT26 anti-tumor response in combination with anti-PD1 (CT26 cells; listed as compound 25): significant anti-tumor responses | CT26 tumor response and survival, monotherapy (words) (CT26 cells): robust response and improved overall survival | CT26 tumor response and survival, monotherapy (words) (CT26 cells; listed as compound 25): marked decrease in tumor growth | MC38 tumor response, monotherapy (words) (MC38 cells [8]): complete and durable response | MC38 tumor response, monotherapy (words) (MC38 cells [8]; listed as compound 25): marked decrease in tumor growth; also recorded: durable cures; also recorded: significant control of the tumor including complete regression in a proportion of the mice | rejection of tumor re-challenge by mice cured with monotherapy (MC38 cells [8]): immunologically reject tumors upon re-challenge | rejection of tumor re-challenge by mice cured with monotherapy (MC38 cells [8]; listed as compound 25): More than three-quarters | MC38 response in combination with anti-PD1 (MC38 cells [8]): conditions tumors to be eliminated by anti-PD1 therapy; also recorded: rescues anti-PD1 failures | MC38 response in combination with anti-PD1 (MC38 cells [8]; listed as compound 25): unexpected increase in both tumor regression and complete responses | EO771 tumor growth and survival, single agent (EO771 cells; agent alone): delayed tumor growth and increased survival | EO771 tumor growth and survival, combination with anti-PD-1 (EO771 cells; compound 25 + anti-PD-1): surprising increase in inhibition of tumor growth and survival | 3LL tumor growth (3LL cells; 1 mg/kg from day 7, then 0.3 mg/kg): reduced tumor growth | ratio of CD8 cells to MDSCs+ and TANs, blood and TIL (3LL cells; 3LL tumor-bearing mice): increased ratio of CD8 cells to MDSCs+ and TANs | tumor control and survival with adoptive transfer of activated OT1 T cells (B16-OVA melanoma cells): unexpected improvement in tumor control and survival | liver microsomal stability, human [9]: moderate-high stability | liver microsomal stability, pig [10]: moderate-high stability | MC38 tumor growth in RAG2−/− mice (MC38 cells [11]): some initial effect on tumor growth | 4T1 tumor growth and survival, monotherapy (words) (4T1 tumor cells): robust response and improved overall survival | CD11b+ cells and G-MDSCs in circulating blood (4T1 tumor cells; 1 mg/kg daily day 7 to 16, flow cytometry days 6, 9, 17): reduced CD11b+ cells and G-MDSCs | TNF alpha in tumor associated macrophages (4T1 tumor cells; [13]): increased TNF alpha | fibrocytes in tumor (4T1 tumor cells; [13]): reduced fibrocytes | 4T1-Luc tumor luminescence, comparison with anti-PD1 (4T1 tumor cells; 1 mg/kg daily from day 7, IVIS imaging day 13): inhibited mammary carcinoma cell proliferation better than anti-PD1 | 4T1 tumor growth and survival, monotherapy (words) (4T1 tumor cells; listed as compound 25): inhibited the growth of mammary carcinoma tumor cells; also recorded: modest decrease in tumor growth | spontaneous lung metastasis (4T1 tumor cells; 1 mg/kg from day 7, then 0.3 mg/kg, lungs harvested day 30): significantly reduces lung metastasis | 4T1 breast cancer model, comparison with CB-839 (4T1 tumor cells; 25 daily days 7-22 (1.0 mg/kg/d) vs CB-839 BID days 1-29): superior to CB-839 | 4T1 tumor growth and survival, combination with anti-PD1 and anti-CTLA4 (4T1 tumor cells; compound 25 + anti-PD1 + anti-CTLA-4): substantial decrease of tumor growth and increase in survival time
